Key:
Assay type in all cases: in vivo
Culex pipiens pallens [1] = test: Knockdown spray test on adult Culex pipiens pallens (Test Example 4); conditions: topical, 0.25 h, active ingredient 0.1% w/v, 0.5 ml sprayed, within 15 minutes, read-out: knockdown rate of the test insects within 15 minutes
Procedure, shortened: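 Ten adult mosquitoes in a gauze-covered cup inside a 46×46×70 cm chamber were sprayed with 0.5 ml of test solution from 30 cm at 0.4 kg/cm^2. The cup was removed at once, and knocked-down insects were counted at 2, 5 and 15 min; knockdown rate (%) = knocked-down/tested ×100.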

Culex pipiens pallens [2] = test: Larvicidal test on Culex pipiens pallens, eight days (Test Example 7); conditions: 192 h; last-instar larvae of Culex pipiens pallens; 3.5 ppm in water; eight days later; read-out: death rate
Method: 20 last-instar larvae of Culex pipiens pallens were released into a liquid to which 0.7 ml of the above test drug solution was added to 100 ml of ion-exchanged water (a concentration of the active ingredient of 3.5 ppm). Eight days later, the life and death of the Culex pipiens pallens was examined, and the death rate was calculated. The death rate was calculated by the following equation.
Death rate (%)=(Number of dead insects/Number of tested insects)×100

Blattella germanica [3] = test: Knockdown spray test on Blattella germanica, 0.1% w/v oil formulation (Test Example 2); conditions: topical, 0.25 h, active ingredient 0.1% w/v, 1.5 ml sprayed, within 15 minutes, read-out: knockdown rate of the test insects within 15 minutes
Procedure, shortened: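 Ten German cockroaches (5 males, 5 females) in a mesh-bottomed, butter-walled container were sprayed with 1.5 ml test solution from 60 cm at 0.42 kg/cm^2 inside a chamber.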

Plutella xylostella = test: Foliar spray test on Plutella xylostella on cabbage (Test Example 10); conditions: 120 h, third instar larvae of Plutella xylostella on cabbage, 500 ppm spray 20 ml/cup, after five days, read-out: controlling value
Method: On the other hand, cabbage was planted in a polyethylene cup, and grown until the third-fourth true leaf was spread. The test spray solution was sprayed to the cabbage at a ratio of 20 ml/cup. After the drug solution sprayed on the cabbage was dried, 10 third instar larvae of Plutella xylostella were allowed to parasitize the cabbage. After five days, the number of Plutella xylostella was investigated, and the controlling value was calculated according to the following standard. Controlling value (%)={1−(Cb×Tai)/(Cai×Tb)}×100 In the equation, the symbols represent as follows. Cb: the number of insects in a non-treated section before treatment Cai: the number of insects in a non-treated section on observation Tb: the number of insects in a treated section before treatment Tai: the number of insects in a treated section on observation

Blattella germanica [4] = test: Knockdown spray test on Blattella germanica, 2.0% w/v oil formulation (Test Example 1); conditions: topical, 0.25 h, active ingredient 2.0% w/v, 1.5 ml sprayed, within 15 minutes, read-out: knockdown rate of the test insects within 15 minutes
Method: Ten Blattella germanica (5 males and 5 females) were released in a test container (8.75 cm in diameter, 7.5 cm in height, and the bottom made of 16 mesh metallic wire) with the inner wall on which butter was applied, and the container was placed on the bottom of a test chamber (bottom: 46 cm×46 cm, height: 70 cm). From a height of 60 cm above the upper surface of the container, 1.5 ml of the test drug solution was sprayed using a spray gun (a spraying pressure of 0.42 kg/cm^2). Thirty seconds after spraying, the container was taken out from the test chamber, and after 2 minutes, 5 minutes and 15 minutes, the number of knocked-down insects was counted to obtain a knockdown rate. The knockdown rate was calculated by the following equation.
(§1) Knockdown Rate (%)=(Number of Knocked-down Insects/Number of Tested Insects)×100

Musca domestica [5] = test: Knockdown spray test on adult Musca domestica (Test Example 3); conditions: topical, 0.25 h, active ingredient 2.0% w/v, 0.5 ml sprayed, within 15 minutes, read-out: knockdown rate of the test insects within 15 minutes
Method: Ten adult Musca domestica (five males and five females) were released in a polyethylene cup (bottom diameter: 10.6 cm), and the cup was covered with a 16-mesh nylon gauze. The polyethylene cup was placed on the bottom of a test chamber (bottom: 46 cm×46 cm, height: 70 cm). From a height of 30 cm above the upper surface of the polyethylene cup, 0.5 ml of the test drug solution was sprayed using a spray gun (a spraying pressure of 0.9 kg/cm^2). Immediately after spraying, the cup was taken out from the test chamber, and after 2 minutes, 5 minutes and 15 minutes, the number of knocked-down insects was counted to obtain a knockdown rate. The knockdown rate was calculated by the following equation.
as §1

Musca domestica [6] = test: Filter paper/sucrose bait death rate test on Musca domestica (Test Example 5); conditions: female imagoes of Musca domestica, 0.7 ml on filter paper, after 24 hours
Procedure, shortened: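 Filter paper in a 5.5 cm cup dosed with 0.7 ml test drug solution, with 30 mg sucrose as bait. Ten female adult houseflies released and cup sealed. Dead insects counted after 24 h; death rate (%) = dead/tested × 100.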

Spodoptera litura = test: Foliar spray test on Spodoptera litura on cabbage (Test Example 11); conditions: 96 h, fourth instar larvae of Spodoptera litura on cabbage, 500 ppm spray 20 ml/cup, after 4 days, read-out: controlling value
Method: On the other hand, cabbage was planted in a polyethylene cup, and grown until the third-fourth true leaf was spread. The test spray solution was sprayed to the cabbage at a ratio of 20 ml/cup. After the drug solution sprayed orn the cabbage was dried, 10 fourth instar larvae of Spodoptera litura were allowed to parasitize the cabbage. After 4 days, the number of surviving Spodoptera litura on the cabbage leaves was examined, and the controlling value was calculated according to the following equation. Controlling value (%)={1−(Cb×Tai)/([…])}×100 In the equation, the symbols represent as follows. Cb: the number of insects in a non-treated section before treatment Cai: the number of insects in a non-treated section on observation Tb: the number of insects in a treated section before treatment Tai: the number of insects in a treated section on observation

Row | SMILES | pest or weed control at 0.1 % strength (Culex pipiens pallens [1]) | pest or weed control at 3.5 ppm (Culex pipiens pallens [2]) | pest or weed control at 0.1 % strength (Blattella germanica [3]) | pest or weed control at 500 ppm (Plutella xylostella) | pest or weed control at 2 % strength (Blattella germanica [4]) | pest or weed control at 2 % strength (Musca domestica [5]) | pest or weed control at 500 ppm (Musca domestica [6]) | pest or weed control at 500 ppm (Spodoptera litura)
1 | O=C(NCC1CCOCC1)c1cc(COc2cccc(C(F)(F)F)c2)on1 [(199), N-(tetrahydropyran-4-ylmethyl)-5-(3-trifluoromethylphenoxymethyl)isoxazole-3-carboxamide] | ≥ 80% | ≥ 90% |  |  |  |  |  | 
2 | O=C(NCC1CCOC1)c1cc(COCc2ccc(Cl)cc2)on1 (centres unmarked) [(70), N-(tetrahydrofuran-3-ylmethyl)-5-(4-chlorobenzyloxymethyl)isoxazole-3-carboxamide] | ≥ 80% | ≥ 90% | ≥ 80% | ≥ 90% |  |  |  | 
3 | CC1(CNC(=O)c2cc(CCCc3ccc4ccccc4c3)on2)COC1 [(332), N-(3-methyloxetan-3-ylmethyl)-5-[3-(2-naphthyl)propyl]isoxazole-3-carboxamide] | ≥ 80% | ≥ 90% | ≥ 80% |  | ≥ 80% | ≥ 80% |  | 
4 | O=C(NCC1CCOC1)c1cc(CCCc2ccc(Cl)cc2)on1 (centres unmarked) [(252), N-(tetrahydrofuran-3-ylmethyl)-5-[3-(4-chlorophenyl]propyl) isoxazole-3-carboxamide] | ≥ 80% | ≥ 90% | ≥ 80% |  |  |  | ≥ 90% | 
5 | O=C(NCC1CCOC1)c1cc(COCc2cccc(OC(F)(F)F)c2)on1 (centres unmarked) [(78), N-(tetrahydrofuran-3-ylmethyl)-5-(3-trifluoromethoxybenzyloxymethyl)isoxazole-3-carboxamide] | ≥ 80% | ≥ 90% | ≥ 80% |  |  |  |  | 
6 | O=C(NCC1CCOC1)c1cc(COCc2cc3ccccc3s2)on1 (centres unmarked) [(112), N-(tetrahydrofuran-3-ylmethyl)-5-(benzothiophen-2-ylmethoxymethyl)isoxazole-3-carboxamide] | ≥ 80% |  | ≥ 80% |  |  |  |  | ≥ 80%
7 | O=C(NCC1CCOC1)c1cc(CCCCOc2ccccc2)on1 (centres unmarked) [(146), N-(tetrahydrofuran-3-ylmethyl)-5-(4-phenoxybutyl)isoxazole-3-carboxamide] | ≥ 80% | ≥ 90% |  |  | ≥ 80% | ≥ 80% |  | 
8 | O=C(NCC1CCOCC1)c1cc(COCc2ccc(SC(F)(F)F)cc2)on1 [(96), N-(tetrahydropyran-4-ylmethyl)-5-(4-trifluoromethylthiobenzyloxymethyl)isoxazole-3-carboxamide] | ≥ 80% | ≥ 90% |  |  |  |  |  | 
9 | O=C(NCC1CCOC1)c1cc(Cc2ccc(Cl)c(Cl)c2)on1 (centres unmarked) [(325), N-(tetrahydrofuran-3-ylmethyl)-5-(3,4-dichlorobenzyl)isoxazole-3-carboxamide] | ≥ 80% |  | ≥ 80% |  |  |  | ≥ 90% | ≥ 80%
10 | Cc1c(C(=O)NCC2CCOC2)noc1CCCc1ccccc1F (centres unmarked) [(282), N-(tetrahydrofuran-3-ylmethyl)-4-methyl-5-[3-(2-fluorophenyl)propyl]isoxazole-3-carboxamide] | ≥ 80% | ≥ 90% | ≥ 80% |  |  |  | ≥ 90% | 
11 | O=C(NCC1CCOC1)c1cc(Cc2cccc(Cl)c2)on1 (centres unmarked) [(321), N-(tetrahydrofuran-3-ylmethyl)-5-(3-chlorobenzyl)isoxazole-3-carboxamide] | ≥ 80% |  | ≥ 80% |  |  |  | ≥ 90% | ≥ 80%
12 | O=C(NCC1CCOCC1)c1cc(COc2cccc(Br)c2)on1 [(197), N-(tetrahydropyran-4-ylmethyl)-5-(3-bromophenoxymethyl)isoxazole-3-carboxamide] | ≥ 80% |  |  |  |  |  |  | ≥ 80%
13 | O=C(NCC1CCOC1)c1cc(COCc2ccc(Br)cc2)on1 (centres unmarked) [(91), N-(tetrahydrofuran-3-ylmethyl)-5-(4-bromobenzyloxymethyl)isoxazole-3-carboxamide] | ≥ 80% | ≥ 90% | ≥ 80% | ≥ 90% |  |  |  | 
14 | O=C(NCC1CCOC1)c1cc(COCC2CCc3ccccc3C2)on1 (centres unmarked) [(118), N-(tetrahydrofuran-3-ylmethyl)-5-(1,2,3,4-tetrahydronaphthalen-2-ylmethoxymethyl)isoxazole-3-carboxamide] | ≥ 80% |  |  | ≥ 90% | ≥ 80% | ≥ 80% |  | 
15 | O=C(NCC1CCOC1)c1cc(COCc2ccccc2)on1 (centres unmarked) [(13), N-(tetrahydrofuran-3-ylmethyl)-5-benzyloxymethylisoxazole-3-carboxamide] | ≥ 80% |  |  | ≥ 90% | ≥ 80% | ≥ 80% |  | 
16 | O=C(NCC1CCOCC1)c1cc(COCc2ccccc2)on1 [(15), N-(tetrahydropyran-4-ylmethyl)-5-benzyloxymethylisoxazole-3-carboxamide] | ≥ 80% |  |  | ≥ 90% | ≥ 80% | ≥ 80% |  | 
17 | O=C(NCC1CCOC1)c1cc(COc2cccc(Br)c2)on1 (centres unmarked) [(196), N-(tetrahydrofuran-3-ylmethyl)-5-(3-bromophenoxymethyl)isoxazole-3-carboxamide] | ≥ 80% |  | ≥ 80% |  |  |  |  | ≥ 80%
18 | COC(=O)c1c(C(=O)NCC2CCOC2)noc1COCc1ccccc1 (centres unmarked) [(167), N-(tetrahydrofuran-3-ylmethyl)-(5-benzyloxymethyl-4-methoxycarbonyl)isoxazole-3-carboxamide] |  | ≥ 90% |  |  |  |  |  | 
19 | O=C(NCC1CCOCC1)c1cc(COCc2ccc3ccccc3c2)on1 [(21), N-(tetrahydropyran-4-ylmethyl)-5-(2-naphthylmethoxymethyl)isoxazole-3-carboxamide] | ≥ 80% | ≥ 90% |  |  | ≥ 80% | ≥ 80% |  | 

— patent publication US20150344466A1 (SUMITOMO CHEMICAL COMPANY, LIMITED, priority 2013, published 2015)
